# From PMC11157767 (Molecular Cancer, 2024)
# “And” between values parts separate entries of the source, which are not always exact repeats. Equal entries are not always repeated. Where two headings read alike, the source gives them in different places.
# Columns and labels:
# TRIM24-MET-i PDOX [1] = experiment: TRIM24-MET-i PDOX 4-arm trial capmatinib +/- RT (survival, BLI, body weight); assay type: in vivo, mouse
# Procedure: (§1) All treatments started 18 days after transplantation. Radiotherapy was administered at 0.5 Gy per day, delivering 10 Gy total.
# Treatment started on day 13.
# [2] = system: TRIM24-MET L97 human glioma cell lines; experiment: γH2AX immunofluorescence after 4 Gy irradiation, TRIM24-MET human glioma cells; assay type: cell-based; settings: 1, 2, 3 and 4 hours following 4 Gy irradiation
# Procedure: (§2) Error bars display standard error of mean, statistical significance was determined using t-test analysis. (****;p<0.0001, ***;p<0.001, **;p<0.01, *;p<0.05). […] Each dot represents an individual replicate. Error bars display standard error of the mean. Statistical significance was determined using a One-Way ANOVA followed by Tukey’s multiple comparisons test (*p<0.05, **p<0.01, ***p<0.001, ****p<0.0001).
# TFG-MET cells = experiment: γH2AX immunofluorescence after 8Gy irradiation, TFG-MET cells; assay type: cell-based, mouse; settings: various time points following 8Gy irradiation
# Source text: Error bars display standard error of mean, statistical significance determined using t-test analysis, *;p<0.05. Scale bar is 10µm.
# Kap1 pS824 = experiment: Western blot of phosphorylated Kap1 (pS824) in TFG-MET allograft tumors; assay type: in vivo, mouse; settings: capmatinib and RT
# Procedure: as §2
# [3] = system: cells isolated from murine tumors induced by overexpressing TFG-MET alone; settings: without Trp53 knockout
# TRIM24-MET-i PDOX [4] = settings: for BLI signal, individual mice: PDX trial cap vs cabo
# Procedure: as §1
# Each line represents one mouse. The ends of lines indicate the onset of neurological symptoms and thereby the endpoints. Treatment started on day 13.
# [5] = mNSCLC patients; cited from earlier work
# [6] = In vitro protein binding assay, mouse plasma
# [7] = In vitro protein binding assay, naive mouse brain tissue homogenate
# MET-fusion pHGG = settings: cited from earlier work
# in vitro [8] = settings: mouse, plasma
# in vitro [9] = settings: mouse, brain homogenate
smiles,measurement,setting,value
CNC(=O)c1ccc(-c2cnc3ncc(Cc4ccc5ncccc5c4)n3n2)cc1F [Capmatinib],mice with spinal metastasis after therapy was withdrawn,TRIM24-MET-i PDOX [1]; capmatinib + RT,one
same,tumor burden,"TRIM24-MET-i PDOX [1]; capmatinib + RT (0.5 Gy per day, 10 Gy total)",profoundly and stably decreased tumor burden
same,disease course under monotherapy,TRIM24-MET-i PDOX [1]; capmatinib alone,stable disease in all treated animals
same,percentage of cells with ≥20 γH2AX-foci vs DMSO,[2],significantly higher
same,percentage of cells with ≥10 γH2AX-foci vs DMSO,TFG-MET cells,significantly higher
same,phosphorylated Kap1 in tumors vs vehicle + RT,Kap1 pS824,significantly greater increase
same,inhibition in dose response assay,[3],potently inhibited
same,"BLI signal, individual mice",TRIM24-MET-i PDOX [4]; day 7,3.18E+07 and 1.72E+07 and 3.36E+07
same,"BLI signal, individual mice",TRIM24-MET-i PDOX [4]; day 9,7.47E+07 and 3.47E+07
same,"BLI signal, individual mice",TRIM24-MET-i PDOX [4]; day 14,5.84E+07 and 2.51E+07
same,"BLI signal, individual mice",TRIM24-MET-i PDOX [4]; day 17,2.44E+07 and 1.00E+07
same,"BLI signal, individual mice",TRIM24-MET-i PDOX [4]; day 21,1.66E+07 and 1.85E+07
same,"BLI signal, individual mice",TRIM24-MET-i PDOX [4]; day 24,1.50E+07 and 1.24E+07
same,"BLI signal, individual mice",TRIM24-MET-i PDOX [4]; day 28,1.39E+07 and 1.53E+07
same,"BLI signal, individual mice",TRIM24-MET-i PDOX [4]; day 31,7.80E+06 and 1.43E+07
same,"BLI signal, individual mice",TRIM24-MET-i PDOX [4]; day 35,9.55E+06 and 1.60E+07 and 7.43E+06
same,"BLI signal, individual mice",TRIM24-MET-i PDOX [4]; day 38,8.92E+06 and 1.56E+07 and 7.00E+06
same,"BLI signal, individual mice",TRIM24-MET-i PDOX [4]; day 42,7.91E+06 and 1.63E+07 and 5.51E+06
same,"BLI signal, individual mice",TRIM24-MET-i PDOX [4]; day 45,9.52E+06 and 1.30E+07 and 6.98E+06
same,"BLI signal, individual mice",TRIM24-MET-i PDOX [4]; day 49,7.93E+06 and 9.97E+06 and 5.88E+06
same,"BLI signal, individual mice",TRIM24-MET-i PDOX [4]; day 52,7.48E+06 and 8.25E+06 and 4.19E+06
same,"BLI signal, individual mice",TRIM24-MET-i PDOX [4]; day 56,8.25E+06 and 1.00E+07 and 5.09E+06
same,"BLI signal, individual mice",TRIM24-MET-i PDOX [4]; day 59,2.02E+06 and 8.98E+06 and 4.17E+06
same,"BLI signal, individual mice",TRIM24-MET-i PDOX [4]; day 63,5.64E+06 and 9.13E+06 and 4.23E+06
same,"BLI signal, individual mice",TRIM24-MET-i PDOX [4]; day 66,6.00E+06 and 8.25E+06 and 4.18E+06
same,"BLI signal, individual mice",TRIM24-MET-i PDOX [4]; day 70,1.53E+06 and 8.82E+06 and 4.89E+06
same,"BLI signal, individual mice",TRIM24-MET-i PDOX [4]; day 73,1.32E+06 and 6.23E+06 and 4.17E+06
same,"BLI signal, individual mice",TRIM24-MET-i PDOX [4]; day 77,4.79E+05 and 1.07E+07 and 4.65E+06
same,"BLI signal, individual mice",TRIM24-MET-i PDOX [4]; day 80,4.21E+05 and 1.01E+07 and 4.77E+06
same,"BLI signal, individual mice",TRIM24-MET-i PDOX [4]; day 87,5.96E+05 and 1.05E+07 and 4.96E+06
same,"BLI signal, individual mice",TRIM24-MET-i PDOX [4]; day 94,8.51E+05 and 7.79E+06
same,"BLI signal, individual mice",TRIM24-MET-i PDOX [4]; day 101,4.10E+05 and 7.68E+06
same,"BLI signal, individual mice",TRIM24-MET-i PDOX [4]; day 108,4.16E+05 and 7.10E+06
same,"BLI signal, individual mice",TRIM24-MET-i PDOX [4]; day 115,3.96E+05 and 8.39E+06
same,"BLI signal, individual mice",TRIM24-MET-i PDOX [4]; day 122,5.52E+05 and 6.96E+06
same,"BLI signal, individual mice",TRIM24-MET-i PDOX [4]; day 129,5.43E+05 and 7.67E+06
same,"BLI signal, individual mice",TRIM24-MET-i PDOX [4]; day 134,7.37E+05 and 1.29E+07
same,"BLI signal, individual mice",TRIM24-MET-i PDOX [4]; day 142,2.48E+05 and 8.31E+06
same,"BLI signal, individual mice",TRIM24-MET-i PDOX [4]; day 147,1.01E+05 and 6.09E+06
same,"BLI signal, individual mice",TRIM24-MET-i PDOX [4]; day 154,7.12E+04 and 6.90E+06
same,"BLI signal, individual mice",TRIM24-MET-i PDOX [4]; day 161,9.26E+04 and 5.65E+06
same,"BLI signal, individual mice",TRIM24-MET-i PDOX [4]; day 175,1.61E+05 and 5.72E+06
same,"BLI signal, individual mice",TRIM24-MET-i PDOX [4]; day 182,4.78E+04 and 7.21E+06
same,"BLI signal, individual mice",TRIM24-MET-i PDOX [4]; day 190,3.12E+05 and 5.75E+06
same,"BLI signal, individual mice",TRIM24-MET-i PDOX [4]; day 196,6.90E+05 and 4.81E+06
same,"BLI signal, individual mice",TRIM24-MET-i PDOX [4]; day 203,1.41E+06 and 5.43E+06
same,"BLI signal, individual mice",TRIM24-MET-i PDOX [4]; day 210,4.51E+07 and 1.12E+07
same,"BLI signal, individual mice",TRIM24-MET-i PDOX [4]; day 217,1.20E+07
same,"BLI signal, individual mice",TRIM24-MET-i PDOX [4]; day 224,3.17E+07
same,"BLI signal, individual mice",TRIM24-MET-i PDOX [4]; day 231,3.11E+08
same,"BLI signal, individual mice",TRIM24-MET-i PDOX [4]; day 238,8.31E+08
same,survival over the 19-week treatment period,"TRIM24-MET-i PDOX [4]; capmatinib BID, 8 mice",all mice surviving
same,mice with initial tumor regression (luciferase imaging),TRIM24-MET-i PDOX [4]; capmatinib monotherapy,two out of eight
same,mice with stable disease (BLI),TRIM24-MET-i PDOX [4]; capmatinib monotherapy,six out of eight
same,mice with tumor relapse within 6 months after treatment ceased,"TRIM24-MET-i PDOX [4]; capmatinib, treated 133 days",7 of 8
same,discontinuation due to fatigue,[5],1.5%
same,discontinuation due to peripheral edema,[5],1.8%
same,discontinuation due to pneumonitis,[5],1.8%
same,patients permanently discontinued due to an adverse reaction,[5],16%
same,fraction unbound,[6],0.0502
same,fraction unbound,[7],0.113
C[C@@H](Oc1cc(-c2cnn(C3CCNCC3)c2)cnc1N)c1c(Cl)ccc(F)c1Cl [Crizotinib],clinical response of one pHGG patient with MET fusion,MET-fusion pHGG,partial response with rapid tumor relapse
same,fraction unbound,in vitro [8],0.0223
same,fraction unbound,in vitro [9],0.0106
